Measured values from PMC8234864, “Early Effects of the Soluble Amyloid β25-35 Peptide in Rat Cortical Neurons: Modulation of Signal Transduction Mediated by Adenosine and Group I Metabotropic Glutamate Receptors” (International Journal of Molecular Sciences, 2021).
Where no end group is shown, it is not given here.

Test system: adenylyl cyclase (AC)
Test: Adenylyl cyclase activity, basal and forskolin-stimulated
Format: cell-based, rat
Experimental: AC activity was determined as previously reported by Murphy with minor modifications. Briefly, control or treated cells were pre-incubated in serum-free DMEM buffered with 20 mM HEPES, pH 7.4, supplemented with 100 µM Ro 20-1724 and 2 U/mL ADA, for 10 min at 37 °C. AC activity was stimulated using specific ligands for 15 min at 37 °C in a final volume of 250 µL. The reaction was stopped by adding 500 µL 0.1 M HCl in absolute ethanol. Once centrifuged at 12,000× g for 10 min, supernatants were evaporated in speed-vac and resuspended in 150 µL assay buffer (50 mM Tris-HCl, 4 mM EDTA). Fifty microliters of the sample were used to determine cAMP accumulation using protein kinase A as a cAMP binding protein and [^3H]cAMP as radioligand. A cAMP standard curve (0–16 pmol) was prepared in the same buffer. Incubation was stopped by rapid filtration through Whatman GF/B filters.

basal or forskolin-stimulated AC activity vs control neurons (25 µM, 24 h, 5 µM forskolin): No differences
basal AC activity (neurons exposed to 25 µM for 24 h): 2.33 ± 0.55 pmol/mg/min
Sequence: GSNKGAIIGLM [Aβ25-35]
